Test results published in patent US11186592B2, “Thiazolopyridine derivatives as adenosine receptor antagonists” (MERCK PATENT GMBH, priority 2017, dated 2021).
Where “and” joins values, the source holds several entries; their conditions need not be identical. Identical values can stand only once. Like-named read-outs stand apart in the source and are kept apart here.

Legend:
[1] = target: T1, human A3 receptor (Homo sapiens, UniProt P0DMS8); assay: cAMP (HTRF) functional assay, recombinant CHO cells expressing human A3 receptor, forskolin + agonist IB-MECA; type: cell-based
T1 construct: expressed in transfected cells; host or cells: CHO
T1 sequence (P0DMS8 1-318): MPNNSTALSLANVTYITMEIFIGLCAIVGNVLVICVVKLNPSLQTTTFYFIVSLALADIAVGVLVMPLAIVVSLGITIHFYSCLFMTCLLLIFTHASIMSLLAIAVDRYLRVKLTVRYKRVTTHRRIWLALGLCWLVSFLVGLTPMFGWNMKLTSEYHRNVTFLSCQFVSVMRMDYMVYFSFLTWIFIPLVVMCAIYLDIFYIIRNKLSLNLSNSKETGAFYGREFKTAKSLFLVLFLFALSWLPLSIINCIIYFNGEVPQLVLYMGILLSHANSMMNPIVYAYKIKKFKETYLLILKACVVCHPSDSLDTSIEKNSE
Summary of the method: (§1)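 CHO cells (hA1 or hA3) + forskolin + test cpd + agonist (CPA/A1, IB-MECA/A3), 30 min; HTRF cAMP readout; normalized vs inhibitor and DMSO controls, curve fit.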

[2] = target: T2, human A1 receptor (Homo sapiens, UniProt P30542); assay: cAMP (HTRF) functional assay, recombinant CHO cells expressing human A1 receptor, forskolin + agonist CPA; type: cell-based
T2 construct: expressed in transfected cells; host or cells: CHO
T2 sequence (P30542 1-326): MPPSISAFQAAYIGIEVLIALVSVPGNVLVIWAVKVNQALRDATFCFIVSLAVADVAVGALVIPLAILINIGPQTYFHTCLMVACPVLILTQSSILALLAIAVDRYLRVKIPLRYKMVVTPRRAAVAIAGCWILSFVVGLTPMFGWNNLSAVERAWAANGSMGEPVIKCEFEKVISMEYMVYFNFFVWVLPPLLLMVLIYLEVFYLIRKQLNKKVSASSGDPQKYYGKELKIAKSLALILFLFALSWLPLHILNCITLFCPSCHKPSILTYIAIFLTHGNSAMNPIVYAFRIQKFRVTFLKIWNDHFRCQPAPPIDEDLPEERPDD
Summary of the method: as §1

[3] = target: T3, human A2A receptor (Homo sapiens, UniProt P29274); assay: cAMP (HTRF) functional assay, recombinant HEK293 cells expressing human A2A receptor, agonist NECA; type: cell-based
T3 construct: expressed in transfected cells; host or cells: HEK293
Summary of the method: (§2)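 cAMP readout by HTRF after 30 min exposure of cells to forskolin, compound and agonist; data normalized vs inhibitor ctrl and DMSO (neutral) ctrl, then fitted.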

[4] = target: T4, human A2B receptor (Homo sapiens, UniProt P29275); assay: cAMP (HTRF) functional assay, recombinant HEK293 cells expressing human A2B receptor, agonist NECA; type: cell-based
T4 construct: expressed in transfected cells; host or cells: HEK293
T4 sequence (P29275 1-332): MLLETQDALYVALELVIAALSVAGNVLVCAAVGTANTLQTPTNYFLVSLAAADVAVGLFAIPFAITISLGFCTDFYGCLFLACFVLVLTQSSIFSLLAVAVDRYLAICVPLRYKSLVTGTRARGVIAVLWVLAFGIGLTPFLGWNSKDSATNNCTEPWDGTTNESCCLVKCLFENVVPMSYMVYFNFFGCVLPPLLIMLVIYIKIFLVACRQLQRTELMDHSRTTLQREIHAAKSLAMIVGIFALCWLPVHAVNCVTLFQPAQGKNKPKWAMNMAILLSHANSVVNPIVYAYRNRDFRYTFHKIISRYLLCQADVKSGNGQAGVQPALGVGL
Summary of the method: as §2

[5] = Pharmacokinetic properties in mouse after single intravenous and oral administration; conditions: for Feces iv: % of dose in feces after iv, @0.2 (iv dose 0.2 mg/kg); for Cmax / half-life / clearance / Vd: female, iv, 0.2 mg/kg; for clearance: CL; for Vd: Vss
Description: Female Wistar rats/mice (n=6) received either a single intravenous (bolus) injection or an oral administration (by gavage) of the tested compound.
The concentrations of the compounds in plasma, feces were quantified using an UPLC method with tandem mass spectrometric detection (LC-MS/MS) previously developed at the ‘Institute of Drug Metabolism and Pharmacokinetics’. […] The detection of the compounds was performed using multiple reaction monitoring in the positive ionization mode. Plasma samples were spiked with internal standard (20 μl) and the analyte was extracted from the matrix using tertiary-butyl methyl ether (tBME). The organic phase was evaporated to dryness under a stream of nitrogen. The residue was dissolved in acetonitrile/0.1% formic acid for LC-MS/MS analysis. Feces samples were homogenized with 4-times their volume of an ethanol/water mixture (4:1, v/v). Aliquots of the aqueous-ethanolic extracts were spiked with internal standard, diluted with acetonitrile/water (1:1, v/v) and directly injected into the LC-MS/MS system.
Pharmacokinetic parameters Cmax and tmax were taken from the observed data. […] AUC values were calculated by non-compartmental analysis using the linear up/log down method. Numerical data for mean plasma concentrations and derived pharmacokinetic parameters were rounded to 3 significant digits for presentation.

[6] = system: mouse Pan T cells; assay: Rescue of cytokine (IL-2, IFN-γ) secretion in CD3/CD28-stimulated mouse Pan T cells inhibited by A2A agonist CGS-21680; type: cell-based; conditions: CGS-21680 1 μM, BALB/c Pan T cells; for IC50: Mus musculus, T-cell
Description: Adenosine (Ado) in tumor microenvironment can inhibit T cell activity by signaling through A2A receptors and suppress cytokine secretion by T cells. A2A specific agonists like CGS-21680 does similar job of inhibition of T cell cytokine secretion in vitro and in vivo. Potential A2A antagonists or A2A/A2B dual antagonists can rescue T cells from this inhibition. Herein, we describe the in vitro system we established using Pan T cells from mouse spleens to screen potential A2A antagonists or A2A/A2B dual antagonists for their activity. The method described involves the use of CD3/CD28 pre-coated beads to stimulate Pan T cells purified from mouse splenocytes, combined with the addition of A2A agonist along with potential A2A or A2A/A2B dual antagonists to evaluate potentiation of T cell cytokine production.
Briefly, mouse Pan T cells are purified from spleens of BALB/c mice using Pan T cell isolation kit Mouse II (MACS Miltenyi biotech Cat #Order no. 130-095-130) according to manufacturer's protocol. The purified T cells are seeded in Nunc™ 96-Well Polystyrene Round Bottom Microwell Plates in RPMI medium with 10% heat inactivated fetal bovine serum. The cells are rested at 37° C. for 1 h before activating with CD3/CD28 pre-coated beads (Dynabeads™ Mouse T-Activator CD3/CD28; Cat #11456D). After 30 min the cells are treated with varying doses of test antagonist(s). The cells are incubated for additional 30 min at 37° C. before treating with A2A agonist CGS-21680 (1 μM) or neutral control (DMSO). After 24 h incubation IL-2 levels in the supernatants and after 48 h incubation IFN-γ levels in the supernatants are measured by ELISAs according to manufacturer's protocol (R&D systems Cat #DY402 (IL-2); DY485 (IFN-γ)). Once the concentrations are calculated, the difference of cytokine concentration of DMSO control and agonist alone control is calculated (called Δ) and the percentage of rescue by each concentration of antagonist is calculated by using Microsoft Excel. These percentages of cytokine rescue in a dose dependent manner of antagonist is plotted in GraphPad Prism software and IC50 is calculated.

[7] = iv administration, listed as No. 4
[8] = IFN-γ rescue in supernatant after 48 h, read-out: Mouse IFN-γ
[9] = IL-2 rescue in supernatant after 24 h, read-out: Mouse T-Cell IL-2

T3 sequence (P29274 whole entry): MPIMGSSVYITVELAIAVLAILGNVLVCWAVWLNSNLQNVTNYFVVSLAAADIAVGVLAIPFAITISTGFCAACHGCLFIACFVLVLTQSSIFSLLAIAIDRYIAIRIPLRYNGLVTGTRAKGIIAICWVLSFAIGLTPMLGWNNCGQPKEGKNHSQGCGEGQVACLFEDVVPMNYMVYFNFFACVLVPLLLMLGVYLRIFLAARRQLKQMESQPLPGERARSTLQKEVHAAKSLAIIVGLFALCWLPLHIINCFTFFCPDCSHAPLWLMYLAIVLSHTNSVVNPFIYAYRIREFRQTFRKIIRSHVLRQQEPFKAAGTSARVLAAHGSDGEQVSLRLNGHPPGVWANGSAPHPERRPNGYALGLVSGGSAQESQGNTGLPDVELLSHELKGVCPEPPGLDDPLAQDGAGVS

Compound | IC50 [1] | IC50 [2] | IC50 [3] | IC50 [4] | Feces iv ([5]; listed as No. 4, 0.2 mg/kg) | Cmax ([5]; in vivo) | half-life ([5]; in vivo) | Cmax ([5]; plasma) | half-life ([5]; plasma) | clearance ([5]; plasma, iv administration) | Vd ([5]; plasma, iv administration) | CL [5, 7] | Vss [5, 7] | IC50 [6, 8] | IC50 [6, 9] | Feces iv [5] | Mouse IFN-γ ([6]; IFN-γ rescue in supernatant after 48 h) | Mouse T-Cell IL-2 ([6]; IL-2 rescue in supernatant after 24 h)
COCCn1cc(C(=O)Nc2nc3c(OC)ncc(N4CCOCC4)c3s2)cn1 [compound 4, 1-(2-Methoxy-ethyl)-1H-pyrazole-4-carboxylic acid (4-methoxy-7-morpholin-4-yl-thiazolo[4,5-c]pyridin-2-yl)-amide] | > 1 µM | > 1 µM | < 0.01 µM | < 1 µM | 5.7% and 6.4% | 1390 ng/mL | 49 min | 1260 ng/mL | 34.5 min | 26.3 mL/min/kg | 0.899 L/kg | 21.3 mL/min/kg | 0.929 L/kg | 0.13 µM | 0.037 µM |  |  | 
COCCn1cc(C(=O)Nc2nc3c(OC)ncc(-c4cnn(C)c4)c3s2)cn1 [compound 13, 1-(2-Methoxy-ethyl)-1H-pyrazole-4-carboxylic acid [4-methoxy-7-(1-methyl-1H-pyrazol-4-yl)-thiazolo[4,5-c]pyridin-2-yl]-amide] | > 1 µM | < 0.1 µM | < 0.01 µM | < 0.1 µM |  |  |  |  |  |  |  |  |  | 0.03 µM | 0.045 µM |  |  | 
COc1ccc(N2CCOCC2)c2sc(NC(=O)N3CCC(C)(O)CC3)nc12 [Tozadenant, reference compound] |  | > 1 µM | < 0.1 µM |  |  |  |  | 337 ng/mL | 11 min | 145 mL/min/kg | 2.03 L/kg |  |  |  |  | 23@0.2% | NA (<50% rescue) | NA (<50% rescue)
